Experimental data: patent US6953677B2, “Recombinant L-N-carbamoylase from Arthrobacter aurescens and method of producing L-amino acids therewith” (Degussa AG, priority 1998, dated 2005)
Read-outs that look alike come from different tables or passages of the source.

Key:
[1] = molecular target: rec-L-N-carbamoylase from A.a. (Paenarthrobacter aurescens, UniProt Q9F464); format: biochemical, Arthrobacter aurescens; settings: pH 8.5, homogeneously purified enzyme
Experimental: (§1) The substrate specificity of the carbamoylase was investigated with homogeneously purified enzyme. The latter was obtained after cell maceration and ion exchange chromatography on Streamline-DEAE- and MonoQ media. A solution of the particular substrate was produced in a concentration of 1.8 mM (exception N-carbamoyl-L-methionine: 50 mM) in 0.1 M TRIS-HCl, pH 8.5 and used instead of the standard substrate in the standard activity test. Instead of the trichloroacetic acid (TCA) used in the standard test for stopping, in the case of the substrates N-formyl-D,L-tryptophane, N-carbamoyl-L-thienylalanine and N-acetyl-D,L-tryptophane heat denaturation was used to terminate the reaction (incubation for 10 min in a boiling water bath) and in the case of the substrate N-carbamoyl-D,L-phenylalanine, addition of 900 μl methanol to 100 μl assay solution was used. The concentration of the amino acid was subsequently determined either by HPLC or colorimetrically after reaction with ninhydrin.
(§2) 5 ml of a cell culture induced with rhamnose are centrifuged at 3000 rpm for 5 min in a Heraeus Megafuge, washed with 5 ml buffer (200 mM TRIS-HCl, pH 7.0), re-centrifuged, taken up in 1 ml buffer (200 mM TRIS-HCl, 0.1 mM MnCl2 pH 7.0) and macerated by ultrasound (Ultrasonics Sonicator, microtip, 2×30 sec, duty cycle 50%). Cell fragments are removed by centrifugation in an Eppendorf centrifuge at 13000 rpm, 10 min. The supernatant, designated as raw extract, is used for the enzyme measurement. 100 μl raw extract or cleaned-up enzyme is mixed with 800 μl 2 mM N-carbamoyl amino acid preheated to 37° C. in 100 mM TRIS-HCl, pH 8.5 and incubated 10 min at 37° C. The reaction is stopped by the addition of 400 μl trichloroacetic acid. The precipitated protein is separated by centrifugation in an Eppendorf centrifuge at 13000 rpm for 10 min. The supernatant is subsequently measured in an HPLC or calorimetrically (ninhydrin). The separation of the reaction mixture takes place in an HPLC with an RP-18 column, the mobile solvent is 0.3% (V/V) phosphoric acid, 80% methanol, flow rate 1.0 ml/min. The detection takes place by measuring the UV absorption at a wavelength of 280 nm.

[2] = substrate: O=CNC(Cc1c[nH]c2ccccc12)C(=O)O; assay: purified protein, by the assay type; format: biochemical, Arthrobacter aurescens; settings: other: homogeneously purified enzyme, 0.1 M TRIS-HCl, pH 8.5, 37.0 °C
Experimental: as §1, §2

[3] = substrate: NC(=O)N[C@@H](Cc1ccc(O)cc1)C(=O)O; assay: purified protein, by the assay type; format: biochemical, Arthrobacter aurescens; settings: other: homogeneously purified enzyme, 0.1 M TRIS-HCl, pH 8.5, 37.0 °C
Experimental: as §1, §2

[4] = substrate: NC(=O)NC(Cc1ccccc1)C(=O)O; assay: purified protein, by the assay type; format: biochemical, Arthrobacter aurescens; settings: other: homogeneously purified enzyme, 0.1 M TRIS-HCl, pH 8.5, 37.0 °C
Experimental: as §1, §2

[5] = substrate: NC(=O)N[C@@H](Cc1cccs1)C(=O)O; assay: purified protein, by the assay type; format: biochemical, Arthrobacter aurescens; settings: other: homogeneously purified enzyme, 0.1 M TRIS-HCl, pH 8.5, 37.0 °C
Experimental: as §1, §2

[6] = substrate: NC(=O)N[C@@H](Cc1c[nH]c2ccccc12)C(=O)O; assay: purified protein, by the assay type; format: biochemical, Arthrobacter aurescens; settings: other: homogeneously purified enzyme, 0.1 M TRIS-HCl, pH 8.5, 37.0 °C
Experimental: as §1, §2

[7] = Temperature stability of the rec-L-N-carbamoylase (storage, then standard activity test); format: physicochemical, Arthrobacter aurescens
Experimental: FIG. 2: Standard activity assay of the isolated recombinant Arthrobacter aurescens N-L-carbamoylase enzyme isolated from E.coli. The N-L-carbamoylase was isolated after cell maceration and ion exchange chromatography on Streamline DEAE and MonoQ media. N-L-carbamoylase activity was determined by reacting with the substrate N-carbamoyl-L-tryptophane over 100 hours wherein the concentration of the amino acid tryptophan was determined in order to calculate N-L carbamoylase activity. The N-L-carbamoylase enzyme activity was measured and reached a relative activity level of around 100% between hours 40 and […] of incubation 37° C.
[…] The standard test for determination of activity was carried out at time intervals of 1-100 h.
as §2

[8] = N-L-carbamoylase activity of raw extract of rhamnose-induced E. coli JM109/pAW178-2; format: biochemical, Arthrobacter aurescens; settings: 9 h after rhamnose induction, approximately maximum; N-carbamoyl-L-tryptophane as substrate
Experimental: 1 ml of an overnight culture of E. coli JM109/pAW178-2 (FIG. 1) in LBamp is added into 100 ml fresh LBamp medium in a one-liter Erlenmeyer flask and the latter incubated at 30° C. in a water bath under agitation (200 rpm). 1 ml of a 20% rhamnose solution is added to the culture at an optical density of the culture of 0.5 (measured at a wavelength of 600 nm in a photometer) (end concentration […]) and the culture incubated further. After a further 9 h incubation approximately the maximum of the N-L-carbamoylase activity is achieved, a specific activity of 1.8 units/mg raw extract, measured with N-carbamoyl-L-tryptophane as substrate. No activity was found in cultures which had not been induced with rhamnose.
5 ml of a cell culture induced with rhamnose are centrifuged at 3000 rpm for 5 min in a Heraeus Megafuge, washed with 5 ml buffer (200 mM TRIS-HCl, pH 7.0), re-centrifuged, taken up in 1 ml buffer (200 mM TRIS-HCl, 0.1 mM MnCl2 pH 7.0) and macerated by ultrasound (Ultrasonics Sonicator, microtip, 2×30 sec, duty cycle 50%). Cell fragments are removed by centrifugation in an Eppendorf centrifuge at 13000 rpm, 10 min. The supernatant, designated as raw extract, is used for the enzyme measurement. […] The supernatant is subsequently measured in an HPLC or calorimetrically (ninhydrin). […]

[9] = substrate 1.8 mM in 0.1 M TRIS-HCl, n.n. = can not be detected

Molecule	Activity % [1, 9]	further results
NC(=O)NC(CC(=O)O)C(=O)O (racemic) [N-carbamoyl-D,L-aspartate]	n.n.	–
CSCC[C@H](NC(N)=O)C(=O)O [N-carbamoyl-L-methionine]	–	Activity % ([1]; substrate 50 mM (exception) in 0.1 M TRIS-HCl): 17%
NC(=O)N[C@@H](Cc1c[nH]c2ccccc12)C(=O)O [N-carbamoyl-L-tryptophane]	100%	–
NC(=O)N[C@H](Cc1c[nH]c2ccccc12)C(=O)O [N-carbamoyl-D-tryptophane]	n.n.	–
NC(=O)N[C@@H](C(=O)O)c1ccccc1 [N-carbamoyl-D-phenylglycine]	n.n.	–
NC(=O)N[C@@H](Cc1cccs1)C(=O)O [N-carbamoyl-L-thienylalanine]	314%	–
NC(=O)N[C@H](Cc1ccccc1)C(=O)O [N-carbamoyl-D-phenylalanine]	n.n.	–
O=CNC(Cc1c[nH]c2ccccc12)C(=O)O (racemic) [N-formyl-D-L-tryptophane]	97%	–
NC(=O)N[C@H](C(=O)O)c1ccccc1 [N-carbamoyl-L-phenylglycine]	n.n.	–
O=CN[C@@H](CC(=O)O)C(=O)O [N-formyl-L-aspartate]	n.n.	–
NC(=O)NCCC(=O)O [N-carbamoyl-β-alanine]	n.n.	–
N=C(N)NCCC[C@H](NC(N)=O)C(=O)O [N-carbamoyl-L-arginine]	n.n.	–
NC(=O)N[C@@H](Cc1ccc(O)cc1)C(=O)O [N-carbamoyl-L-tyrosine]	126%	–
NC(=O)NC(Cc1ccccc1)C(=O)O (racemic) [N-carbamoyl-D,L-phenylalanine]	97%	–
NC(=O)N[C@@H](CCC(=O)O)C(=O)O [N-carbamoyl-L-glutamate]	n.n.	–
CC(=O)NC(Cc1c[nH]c2ccccc12)C(=O)O (racemic) [N-acetyl-D,L-tryptophane]	n.n.	–
rec-L-N-carbamoylase from A.a. (Paenarthrobacter aurescens) (protein) MTLQKAQAERIEKEIRELSRFSAEGPGVTRLTYTPEHAAARETLIAAMKAAALSVREDALGNIIGRREGTDPELPAIAVGSHFDSVRNGGMFDGTAGVVCALEAARVMLENGYVNRHPFEFIAIVEEEGARFSSGMLGGRAIAGLVADRELDSLVDEDGVSVRQAATAFGLKPGELQAAARSAADLRAFIELHIEQGPILEQEQIEIGVVTSIVGVRALRVAVKGRSDHAGTTPMHLRQDALVPAALMVREVNRFVNEIADGTVATVGHLTVAPGGGNQVPGEVDFTLDLRSPHEESLRVLIDRISVMVGEVASQAGVAADVDEFFNLSPVQLAPTMVDAVREAASALQFTHRDISSGAGHDSMFIAQVTDVGMVFVPSRAGRSHVPEEWTDFDDLRKGTEVVLRVMKALDR	–	Km [2]: 8.5 MM; Km [3]: 0.3 MM; Km [4]: 0.7 MM; Km [5]: 2.3 MM; Km [6]: 0.12 MM
rec-carbamoylase: recombinant L-N-carbamoylase from Arthrobacter aurescens (hyuC gene, SEQ ID NO:2) expressed in E. coli (protein, listed as Arthrobacter aurescens) MTLQKAQAARIEKEIRELSRFSAEGPGVTRLTYTPEHAAARETLIAAMKAAALSVREDALGNIIGRREGTDPELPAIAVGSHFDSVRNGGMFDGTAGVVCALEAARVMLENGYVNRHPFEFIAIVEEEGARFSSGMLGGRAIAGLVADRELDSLVDEDGVSVRQAATAFGLKPGELQAAARSAADLRAFIELHIEQGPILEQEQIEIGVVTSIVGVRALRVAVKGRSDHAGTTPMHLRQDALVPAALMVREVNRFVNEIADGTVATVGHLTVAPGGGNQVPGEVDFTLDLRSPHEESLRVLIDRISVMVGEVASQAGVAADVDEFFNLSPVQLAPTMVDAVREAASALQFTHRDISSGAGHDSMFIAQVTDVGMVFVPSRAGRSHVPEEWTDFDDLRKGTEVVLRVMKALDR	–	activity on storage at 37° C. ([7]; 37° C., 100 h, homogeneously purified recombinant enzyme): almost unchanged; duration of activity at 50° C. ([7]; 50° C.): hours; relative activity level ([7]; between hours 40 and 140 of incubation 37° C., substrate N-carbamoyl-L-tryptophane (FIG. 2)): around 100%; specific activity [8]: 1.8 units/mg raw extract
